From ChEMBL document CHEMBL1201862, “PubChem BioAssay data set” (2004)
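Cells were grown in 96-well plates and exposed to each compound for 48 hours at five concentrations; endpoints were interpolated linearly between bracketing concentrations, or set to the highest concentration if not reached. The concentration for 50% growth inhibition is given as GI50.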 Active and inactive are the calls of the source. Rule as the data show it: active = GI50 up to about 1.1 µM and inactive = higher.

Legend:
Experiment in all cases: inhibition of tumour cell growth, NCI panel, 48 h
786-0 = tested on: 786-0
HCC 2998 = tested on: HCC 2998
SF-268 = tested on: SF-268
SNB-75 = tested on: SNB-75
CAKI-1 = tested on: CAKI-1
UACC-62 = tested on: UACC-62
TK-10 = tested on: TK-10
A549 = tested on: A549
HOP-92 = tested on: HOP-92
DU-145 = tested on: DU-145
NCI/ADR-RES = tested on: NCI/ADR-RES
SN12C = tested on: SN12C
A498 = tested on: A498
SW-620 = tested on: SW-620
IGROV-1 = tested on: IGROV-1
K562 = tested on: K562
UACC-257 = tested on: UACC-257
RPMI-8226 = tested on: RPMI-8226
COLO 205 = tested on: COLO 205
HL-60 = tested on: HL-60

| SMILES | GI50 (786-0) | GI50 (HCC 2998) | GI50 (SF-268) | GI50 (SNB-75) | GI50 (CAKI-1) | GI50 (UACC-62) | GI50 (TK-10) | GI50 (A549) | GI50 (HOP-92) | GI50 (DU-145) | GI50 (NCI/ADR-RES) | GI50 (SN12C) | GI50 (A498) | GI50 (SW-620) | GI50 (IGROV-1) | GI50 (K562) | GI50 (UACC-257) | GI50 (RPMI-8226) | GI50 (COLO 205) | GI50 (HL-60) |
| --- | --- | --- | --- | --- | --- | --- | --- | --- | --- | --- | --- | --- | --- | --- | --- | --- | --- | --- | --- | --- |
| NC(CCc1ccccc1)(C(=O)O)c1ccccc1 (stereo not drawn) | > 100 µM (inactive) | > 100 µM (inactive) | > 100 µM (inactive) | > 100 µM (inactive) | > 100 µM (inactive) | > 100 µM (inactive) | > 100 µM (inactive) | > 100 µM (inactive) | > 100 µM (inactive) | > 100 µM (inactive) | > 100 µM (inactive) | > 100 µM (inactive) | > 100 µM (inactive) | > 100 µM (inactive) | > 100 µM (inactive) | > 100 µM (inactive) | > 100 µM (inactive) |  |  |  |
| COc1cc(OC)cc(-n2c(N)c(-c3nc4ccccc4n3C)c3ccc([N+](=O)[O-])cc3c2=O)c1 | 64.7 µM (inactive) | > 100 µM (inactive) | 55.5 µM (inactive) | 2.02 µM (inactive) | > 100 µM (inactive) | > 100 µM (inactive) | > 100 µM (inactive) | > 100 µM (inactive) | 18.6 µM (inactive) | > 100 µM (inactive) | 33.8 µM (inactive) | 94.4 µM (inactive) | > 100 µM (inactive) | > 100 µM (inactive) |  | > 100 µM (inactive) | > 100 µM (inactive) | > 100 µM (inactive) | > 100 µM (inactive) |  |
| COc1ccc2[nH]c3ccc4cc[n+](CCN5CCC(C6CCN(CC[n+]7ccc8ccc9[nH]c%10ccc(OC)cc%10c9c8c7)CC6)CC5)cc4c3c2c1 | 0.249 µM (active) |  | 1.97 µM (inactive) | 14.2 µM (inactive) | 1.02 µM (active) | 0.938 µM (active) | 21.4 µM (inactive) | 0.409 µM (active) | 0.303 µM (active) | 21.4 µM (inactive) | 19.5 µM (inactive) | 0.661 µM (active) | > 16.2 µM (inactive) | 0.316 µM (active) | 0.352 µM (active) | 0.228 µM (active) | 35.2 µM (inactive) |  |  |  |
| Cc1nn(-c2ccccc2)c(C)c1/C=N/N=C1\SCC(=O)N1c1ccccc1 | 15.8 µM (inactive) | 20.3 µM (inactive) | 28.4 µM (inactive) | 20.4 µM (inactive) | 19.4 µM (inactive) | 21.4 µM (inactive) | 26.2 µM (inactive) | 28.6 µM (inactive) |  | 31.8 µM (inactive) | 18.5 µM (inactive) | 44.7 µM (inactive) | 23.6 µM (inactive) | 33.9 µM (inactive) | 32.3 µM (inactive) | 25.8 µM (inactive) | 32.4 µM (inactive) | 13.4 µM (inactive) | 14.9 µM (inactive) | 30.8 µM (inactive) |
| CCCCc1ccc(N2C(=O)c3cc(C)cnc3S2(=O)=O)cc1 | > 100 µM (inactive) | > 100 µM (inactive) | 97.5 µM (inactive) | 59.2 µM (inactive) |  |  |  | > 100 µM (inactive) | > 100 µM (inactive) | > 100 µM (inactive) | > 100 µM (inactive) | > 100 µM (inactive) |  | > 100 µM (inactive) | > 100 µM (inactive) | > 100 µM (inactive) |  | > 100 µM (inactive) | > 100 µM (inactive) | > 100 µM (inactive) |
| Cc1cc(NS(=O)(=O)c2ccc(/N=N/c3c(Nc4ccccc4)nn(-c4ccc(S(=O)(=O)Nc5ccncn5)cc4)c3C)cc2)no1 | > 100 µM (inactive) | > 100 µM (inactive) |  | > 100 µM (inactive) | > 100 µM (inactive) | > 100 µM (inactive) | > 100 µM (inactive) | > 100 µM (inactive) | > 100 µM (inactive) | > 100 µM (inactive) | > 100 µM (inactive) | > 100 µM (inactive) |  |  | > 100 µM (inactive) | 86.1 µM (inactive) | > 100 µM (inactive) |  | > 100 µM (inactive) |  |
| CN(C)c1ccc(/N=C2/NC(=N\c3ccccc3)/C(=N/c3ccccc3)S2)cc1 | 32 µM (inactive) | > 100 µM (inactive) | > 100 µM (inactive) | 27.2 µM (inactive) | > 100 µM (inactive) | 51.2 µM (inactive) | 62.4 µM (inactive) | > 100 µM (inactive) | > 100 µM (inactive) | > 100 µM (inactive) | > 100 µM (inactive) | > 100 µM (inactive) | 87.3 µM (inactive) | > 100 µM (inactive) | > 100 µM (inactive) |  | > 100 µM (inactive) |  | > 100 µM (inactive) | > 100 µM (inactive) |
| N#C/C(C(=O)Nc1ccccc1)=C(/N)N1CCCCC1 | > 100 µM (inactive) | > 100 µM (inactive) |  | > 100 µM (inactive) | > 100 µM (inactive) | 95.7 µM (inactive) |  | > 100 µM (inactive) | > 100 µM (inactive) | > 100 µM (inactive) | > 100 µM (inactive) | > 100 µM (inactive) |  | > 100 µM (inactive) | 91 µM (inactive) | > 100 µM (inactive) | > 100 µM (inactive) | > 100 µM (inactive) | > 100 µM (inactive) |  |
| CSC(SC)(C(=O)O)c1cc(-c2c(Cl)cccc2Cl)no1 | 39.5 µM (inactive) |  | 51.9 µM (inactive) | 33 µM (inactive) | 48.4 µM (inactive) | 27.9 µM (inactive) | > 100 µM (inactive) | 55.1 µM (inactive) | 98.9 µM (inactive) | > 100 µM (inactive) | 26.5 µM (inactive) | 62.1 µM (inactive) |  | > 100 µM (inactive) | 30.4 µM (inactive) | 50.8 µM (inactive) | 42.9 µM (inactive) | 16.3 µM (inactive) | 34.4 µM (inactive) |  |
| CCC(=O)NCCc1c[nH]c2ccc(OC)cc12 | > 100 µM (inactive) | > 100 µM (inactive) | > 100 µM (inactive) | > 100 µM (inactive) | > 100 µM (inactive) | > 100 µM (inactive) | > 100 µM (inactive) | > 100 µM (inactive) | > 100 µM (inactive) | > 100 µM (inactive) | > 100 µM (inactive) | > 100 µM (inactive) | > 100 µM (inactive) | > 100 µM (inactive) | > 100 µM (inactive) | > 100 µM (inactive) | > 100 µM (inactive) | > 100 µM (inactive) | > 100 µM (inactive) |  |
| O=C1CCC2(c3ccc(F)cc3)Nc3ncncc3N12 (stereo not drawn) | > 10 µM (inactive) | > 10 µM (inactive) | > 10 µM (inactive) | > 10 µM (inactive) |  | > 10 µM (inactive) | > 10 µM (inactive) | > 10 µM (inactive) | > 10 µM (inactive) | > 10 µM (inactive) | > 10 µM (inactive) | > 10 µM (inactive) |  | > 10 µM (inactive) | > 10 µM (inactive) | > 10 µM (inactive) | > 10 µM (inactive) |  |  |  |
| O=C(NNc1nc(-c2ccccc2)cs1)C(F)(F)F | > 100 µM (inactive) | 95.1 µM (inactive) | 29.6 µM (inactive) | 19 µM (inactive) | 45.8 µM (inactive) | 58.7 µM (inactive) |  | 39.2 µM (inactive) |  | 53.1 µM (inactive) | 29.9 µM (inactive) | 75.7 µM (inactive) | 37.1 µM (inactive) | 34.4 µM (inactive) | 20.2 µM (inactive) | 25 µM (inactive) | 44.3 µM (inactive) | 16.4 µM (inactive) | 35.8 µM (inactive) | 33.1 µM (inactive) |
